Patent US10722501B2 (BAYER AKTIENGESELLSCHAFT, priority 2016, dated 2020)

These compounds were tested against T1, recombinant full-length human prolyl endopeptidase (PREP) (Homo sapiens, UniProt P48147) (assay: Biochemical human prolyl endopeptidase (PREP) assay with fluorescently labelled substrate). Conditions: substrate Z-Gly-Pro-AMC 50 μM, 32° C., 60 min; some as mean values from multiple independent determinations.
T1 construct: To recombinant full-length human prolyl endopeptidase (PREP, R&D-Systems, 4308-SE); purchased R&D-Systems 4308-SE
T1 sequence (P48147 1-710): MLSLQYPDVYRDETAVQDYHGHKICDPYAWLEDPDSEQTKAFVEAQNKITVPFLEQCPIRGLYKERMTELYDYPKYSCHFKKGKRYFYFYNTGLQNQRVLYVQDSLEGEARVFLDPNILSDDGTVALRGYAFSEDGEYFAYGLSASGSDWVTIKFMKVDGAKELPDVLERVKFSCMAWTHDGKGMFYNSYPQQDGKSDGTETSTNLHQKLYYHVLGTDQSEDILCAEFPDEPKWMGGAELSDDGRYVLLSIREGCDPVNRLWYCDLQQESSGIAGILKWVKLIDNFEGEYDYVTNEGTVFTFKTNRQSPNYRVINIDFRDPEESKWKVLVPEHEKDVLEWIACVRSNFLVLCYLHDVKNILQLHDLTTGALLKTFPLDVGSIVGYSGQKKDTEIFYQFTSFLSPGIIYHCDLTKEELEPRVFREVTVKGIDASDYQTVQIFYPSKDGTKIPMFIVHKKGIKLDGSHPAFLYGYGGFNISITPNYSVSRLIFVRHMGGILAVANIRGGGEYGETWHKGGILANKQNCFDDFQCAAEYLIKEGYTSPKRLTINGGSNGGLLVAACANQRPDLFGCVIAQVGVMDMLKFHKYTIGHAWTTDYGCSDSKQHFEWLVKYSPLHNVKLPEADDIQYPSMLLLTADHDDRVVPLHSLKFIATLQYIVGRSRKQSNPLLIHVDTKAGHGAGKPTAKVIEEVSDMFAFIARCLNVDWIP
Procedure, shortened: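 0.4 nM (final, example) recombinant PREP in pH 7.5 Tris buffer with EDTA, GSH, BSA and Brij-35; compounds at 1 nM to 30 μM. Reaction started with 50 μM Z-Gly-Pro-AMC and followed by fluorescence (ex 360/em 465 nm) at 32° C for 60 min. IC50 interpolated from percent activity based on initial slopes.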
O=C(C1CC(C(F)(F)F)Cc2nn(Cc3ccc(Cl)nc3)c(=O)n21)N1CC[C@H](F)C1 (mixture of isomers) [Example 242, (5RS,7RS)-2-[(6-Chloropyridin-3-yl)methyl]-5-{[(3S)-3-fluoropyrrolidin-1-yl]carbonyl}-7-(trifluoromethyl)-5,6,7,8-tetrahydro[1,2,4]triazolo[4,3-a]pyridin-3(2H)-one] gave an IC50 of 2 nM. For O=C(C1CC(C(F)(F)F)Cc2nn(Cc3ccc(Cl)nc3)c(=O)n21)N1CC[C@@H](F)C1 (mixture of isomers) [Example 245, (5RS,7RS)-2-[(6-Chloropyridin-3-yl)methyl]-5-{[(3R)-3-fluoropyrrolidin-1-yl]carbonyl}-7-(trifluoromethyl)-5,6,7,8-tetrahydro[1,2,4]triazolo[4,3-a]pyridin-3(2H)-one], the IC50 was 6.9 nM. O=C(C1CC(C(F)(F)F)Cc2nn(Cc3ccnc(C(F)(F)F)c3F)c(=O)n21)N1CCC(F)(F)C1 (racemic) [Example 251, (5RS,7RS)-5-[(3,3-Difluoropyrrolidin-1-yl)carbonyl]-2-{[3-fluoro-2-(trifluoromethyl)pyridin-4-yl]methyl}-7-(trifluoromethyl)-5,6,7,8-tetrahydro[1,2,4]triazolo[4,3-a]pyridin-3(2H)-one] showed an IC50 of 3.4 nM. O=C(C1CC(C(F)(F)F)Cc2nn(Cc3ccnc(C(F)(F)F)c3F)c(=O)n21)N1CC[C@H](F)C1 (mixture of isomers) [Example 256, (5RS,7RS)-5-{[(3S)-3-Fluoropyrrolidin-1-yl]carbonyl}-2-{[3-fluoro-2-(trifluoromethyl)pyridin-4-yl]methyl}-7-(trifluoromethyl)-5,6,7,8-tetrahydro[1,2,4]triazolo[4,3-a]pyridin-3(2H)-one] showed an IC50 of 1.7 nM. O=C(C1CC(C(F)(F)F)Cc2nn(Cc3ncc(Cl)cc3F)c(=O)n21)N1CC[C@H](F)C1 (mixture of isomers) [Example 263, (5RS,7RS)-2-[(5-Chloro-3-fluoropyridin-3-yl)methyl]-5-{[(3S)-3-fluoropyrrolidin-1-yl]carbonyl}-7-(trifluoromethyl)-5,6,7,8-tetrahydro[1,2,4]triazolo[4,3-a]pyridin-3(2H)-one] showed an IC50 of 2.8 nM. O=C(C1CC(C(F)(F)F)Cc2nn(Cc3ncc(Cl)cc3F)c(=O)n21)N1CC[C@H](F)C1 (mixture of isomers) [Example 264, (5RS,7RS)-2-[(5-Chloro-3-fluoropyridin-3-yl)methyl]-5-{[(3S)-3-fluoropyrrolidin-1-yl]carbonyl}-7-(trifluoromethyl)-5,6,7,8-tetrahydro[1,2,4]triazolo[4,3-a]pyridin-3(2H)-one] was tested, and the IC50 was 2.55 nM. O=C(C1CC(C(F)(F)F)Cc2nn(Cc3ncc(Cl)cc3F)c(=O)n21)N1C[C@@H](F)[C@@H](F)C1 (mixture of isomers) [Example 266, (5RS,7RS)-2-[(5-Chloro-3-fluoropyridin-3-yl)methyl]-5-{[(3R,4S)-3,4-difluoropyrrolidin-1-yl]carbonyl}-7-(trifluoromethyl)-5,6,7,8-tetrahydro[1,2,4]triazolo[4,3-a]pyridin-3(2H)-one] was tested, and the IC50 was 5.1 nM. O=C(C1CCC(C(F)(F)F)c2nn(Cc3ccc(C(F)(F)F)nc3)c(=O)n21)N1C[C@@H](F)[C@@H](F)C1 (mixture of isomers) [Example 270, (5RS,8RS)-5-{[(3R,4S)-3,4-Difluoropyrrolidin-1-yl]carbonyl}-8-(trifluoromethyl)-2-{[6-(trifluoromethyl)pyridin-3-yl]methyl}-5,6,7,8-tetrahydro[1,2,4]triazolo[4,3-a]pyridin-3(2H)-one] showed an IC50 of 2 nM. Compound O=C(C1CCC(C(F)(F)F)c2nn(Cc3ccc(C(F)(F)F)nc3)c(=O)n21)N1CC[C@H](F)C1 (mixture of isomers) [Example 271, (5RS,8RS)-5-{[(3S)-3-Fluoropyrrolidin-1-yl]carbonyl}-8-(trifluoromethyl)-2-{[6-(trifluoromethyl)pyridin-3-yl]methyl}-5,6,7,8-tetrahydro[1,2,4]triazolo[4,3-a]pyridin-3(2H)-one] has an IC50 of 1.1 nM. Compound O=C(C1CCC(C(F)(F)F)c2nn(Cc3ncccc3F)c(=O)n21)N1CC[C@H](F)C1 (mixture of isomers) [Example 273, (5RS,8RS)-2-[(3-Fluoropyridin-2-yl)methyl]-5-{[(3S)-3-fluoropyrrolidin-1-yl]carbonyl}-8-(trifluoromethyl)-5,6,7,8-tetrahydro[1,2,4]triazolo[4,3-a]pyridin-3(2H)-one] has an IC50 of 7.6 nM. With O=C(C1CCC(C(F)(F)F)c2nn(Cc3ncccc3F)c(=O)n21)N1C[C@@H](F)[C@@H](F)C1 (mixture of isomers) [Example 274, (5RS,8RS)-5-{[(3R,4S)-3,4-Difluoropyrrolidin-1-yl]carbonyl}-2-[(3-fluoropyridin-2-yl)methyl]-8-(trifluoromethyl)-5,6,7,8-tetrahydro[1,2,4]triazolo[4,3-a]pyridin-3(2H)-one] the IC50 was 5.9 nM. With O=C(C1C(C(F)(F)F)CCc2nn(Cc3ccnc(C(F)(F)F)c3F)c(=O)n21)N1CC[C@H](F)C1 (mixture of isomers) [Example 280, (5RS,6RS)-5-{[(3S)-3-Fluoropyrrolidin-1-yl]carbonyl}-2-{[3-fluoro-2-(trifluoromethyl)pyridin-4-yl]methyl}-6-(trifluoromethyl)-5,6,7,8-tetrahydro[1,2,4]triazolo[4,3-a]pyridin-3(2H)-one] the IC50 was 3.8 nM. Compound O=C(C1C(C(F)(F)F)CCc2nn(Cc3ncc(Cl)cc3Cl)c(=O)n21)N1CC[C@H](F)C1 (mixture of isomers) [Example 282, (5RS,6RS)-2-[(3,5-Dichloropyridin-2-yl)methyl]-5-{[(3S)-3-fluoropyrrolidin-1-yl]carbonyl}-6-(trifluoromethyl)-5,6,7,8-tetrahydro[1,2,4]triazolo[4,3-a]pyridin-3(2H)-one] has an IC50 of 15 nM. O=C(C1C(C(F)(F)F)CCc2nn(Cc3ccc(C(F)(F)F)nc3)c(=O)n21)N1CC[C@H](F)C1 (mixture of isomers) [Example 284, (5RS,6RS)-5-{[(3S)-3-Fluoropyrrolidin-1-yl]carbonyl}-6-(trifluoromethyl)-2-{[6-(trifluoromethyl)pyridin-3-yl]methyl}-5,6,7,8-tetrahydro[1,2,4]triazolo[4,3-a]pyridin-3(2H)-one] was tested, and the IC50 was 3 nM. O=C(C1C(C(F)(F)F)CCc2nn(Cc3ncc(Cl)cc3Cl)c(=O)n21)N1C[C@@H](F)[C@@H](F)C1 (mixture of isomers) [Example 287, (5RS,6RS)-2-[(3,5-Dichloropyridin-2-yl)methyl]-5-{[(3R,4S)-3,4-difluoropyrrolidin-1-yl]carbonyl}-6-(trifluoromethyl)-5,6,7,8-tetrahydro[1,2,4]triazolo[4,3-a]pyridin-3(2H)-one] was tested, and the IC50 was 23 nM. O=C(C1C(C(F)(F)F)CCc2nn(Cc3ncc(Cl)cc3Cl)c(=O)n21)N1CCC(F)(F)C1 (racemic) [Example 289, (5RS,6RS)-2-[(3,5-Dichloropyridin-2-yl)methyl]-5-[(3,3-difluoropyrrolidin-1-yl)carbonyl]-6-(trifluoromethyl)-5,6,7,8-tetrahydro[1,2,4]triazolo[4,3-a]pyridin-3(2H)-one] showed an IC50 of 117 nM. In the case of O=C(C1C(C(F)(F)F)CCc2nn(Cc3ncc(Cl)cc3F)c(=O)n21)N1C[C@@H](F)[C@@H](F)C1 (mixture of isomers) [Example 291, (5RS,6RS)-2-[(5-Chloro-3-fluoropyridin-2-yl)methyl]-5-{[(3R,4S)-3,4-difluoropyrrolidin-1-yl]carbonyl}-6-(trifluoromethyl)-5,6,7,8-tetrahydro[1,2,4]triazolo[4,3-a]pyridin-3(2H)-one], the IC50 is reported as 96.5 nM. O=C(C1C(C(F)(F)F)CCc2nn(Cc3ncc(Cl)cc3F)c(=O)n21)N1CC[C@H](F)C1 (mixture of isomers) [Example 294, (5RS,6RS)-2-[(5-Chloro-3-fluoropyridin-2-yl)methyl]-5-{[(3S)-3-fluoropyrrolidin-1-yl]carbonyl}-6-(trifluoromethyl)-5,6,7,8-tetrahydro[1,2,4]triazolo[4,3-a]pyridin-3(2H)-one] gave an IC50 of 20 nM. O=C(C1C(C(F)(F)F)CCc2nn(Cc3ncc(Cl)cc3F)c(=O)n21)N1CCC(F)(F)C1 (racemic) [Example 296, (5RS,6RS)-2-[(5-Chloro-3-fluoropyridin-2-yl)methyl]-5-[(3,3-difluoropyrrolidin-1-yl)carbonyl]-6-(trifluoromethyl)-5,6,7,8-tetrahydro[1,2,4]triazolo[4,3-a]pyridin-3(2H)-one] was tested, and the IC50 was 180 nM. Work on O=C(C1C(C(F)(F)F)CCc2nn(Cc3ccc(Cl)cn3)c(=O)n21)N1CC[C@H](F)C1 (mixture of isomers) [Example 298, (5RS,6RS)-2-[(5-Chloropyridin-2-yl)methyl]-5-{[(3S)-3-fluoropyrrolidin-1-yl]carbonyl}-6-(trifluoromethyl)-5,6,7,8-tetrahydro[1,2,4]triazolo[4,3-a]pyridin-3(2H)-one] yielded an IC50 of 24 nM.
